Assay results published in US20120245159A1, “COMPOSITION AND METHOD FOR CONTROLLING ARTHROPOD PESTS” (SUMITOMO CHEMICAL COMPANY, LIMITED, priority 2009, published 2012).

Experiments:
Assay type in all cases: in vivo
[1] = system: cotton aphid (Aphis gossypii); assay: Test Example 1: pesticidal effect against cotton aphid by spray treatment (cucumber leaf disk, control value); details: composition of the compound and clothianidin; spray over cucumber leaf disk, 25° C., 5 days; summary of Table 43
Protocol: A commercially available clothianidin water-soluble agent, manufactured by Sumitomo Chemical Co., Ltd. under the product name of Dantotsu (registered trademark) water-soluble agent, as the neonicotinoide compound was diluted with water. […] In a well of 24-well plate containing agar, a cucumber leaf disk was put on the agar and about 15 cotton aphids (Aphis gossypii) were released on the leaf disk. The test chemical solution (20 μl/well) was sprayed over the leaf disk, followed by storage in a constant-temperature breeding room at 25° C. for 5 days, and then the number of surviving aphids was checked. A control value (%) was calculated by the following equation. […] wherein symbols represents the following meanings. Cb: Number of bugs in non-treated group before treatment Cai: Number of bugs in a non-treated group on observation Tb: Number of bugs in treated group before treatment Tai: Number of bugs in treated group on observation

[2] = system: brown planthopper (Nilaparvata lugens); assay: Test Example 2: pesticidal effect against brown planthopper by foliage spray treatment of rice (control value); details: foliage spray of rice seedlings, third-instar larvae, after 5 days
[3] = system: cotton aphid (Aphis gossypii); assay: Test Example 3: pesticidal effect against cotton aphid by spray treatment (cucumber leaf disk, control value); details: composition of the compound and clothianidin; spray over cucumber leaf disk, 25° C., 5 days; summary of Table 49
[4] = system: brown planthopper (Nilaparvata lugens); assay: Test Example 4: pesticidal effect against brown planthopper by foliage spray treatment of rice (control value); details: foliage spray of rice seedlings, third-instar larvae, after 5 days
[5] = composition of the compound and clothianidin, summary of Table 44
[6] = composition of the compound and dinotefuran, summary of Table 48
[7] = composition of the compound and imidacloprid, summary of Table 47
[8] = composition of the compound and nitenpyram, summary of Table 45
[9] = composition of the compound and thiamethoxam, summary of Table 46
[10] = composition of the compound and clothianidin, summary of Table 50
[11] = composition of the compound and dinotefuran, summary of Table 54
[12] = composition of the compound and imidacloprid, summary of Table 53
[13] = composition of the compound and nitenpyram, summary of Table 51
[14] = composition of the compound and thiamethoxam, summary of Table 52

CSc1cnccc1-c1nc2cc(C(F)(F)F)cnc2o1 [Compound 146, 2-(3-methylthiopyridin-4-yl)-6-(trifluoromethyl)oxazolo[5,4-b]pyridine]
high pesticidal efficacy: pesticidal efficacy against cotton aphid (Aphis gossypii) [1] | pesticidal efficacy against brown planthopper (Nilaparvata lugens) [2, 5] | pesticidal efficacy against brown planthopper (Nilaparvata lugens) [2, 6] | pesticidal efficacy against brown planthopper (Nilaparvata lugens) [2, 7] | pesticidal efficacy against brown planthopper (Nilaparvata lugens) [2, 8] | pesticidal efficacy against brown planthopper (Nilaparvata lugens) [2, 9]

CCc1cnccc1-c1nc2cc(C(F)(F)F)cnc2o1 [Compound 143, 2-(3-ethylpyridin-4-yl)-6-(trifluoromethyl)oxazolo[5,4-b]pyridine]
high pesticidal efficacy: pesticidal efficacy against cotton aphid (Aphis gossypii) [1] | pesticidal efficacy against brown planthopper (Nilaparvata lugens) [2, 5] | pesticidal efficacy against brown planthopper (Nilaparvata lugens) [2, 6] | pesticidal efficacy against brown planthopper (Nilaparvata lugens) [2, 7] | pesticidal efficacy against brown planthopper (Nilaparvata lugens) [2, 8] | pesticidal efficacy against brown planthopper (Nilaparvata lugens) [2, 9]

CC(C)COc1cnccc1-c1nc2cc(C(F)(F)F)ccc2o1 [Compound 116, 2-(3-isobutoxypyridin-4-yl)-5-(trifluoromethyl)benzoxazole]
high pesticidal efficacy: pesticidal efficacy against cotton aphid (Aphis gossypii) [3] | pesticidal efficacy against brown planthopper (Nilaparvata lugens) [4, 10] | pesticidal efficacy against brown planthopper (Nilaparvata lugens) [4, 11] | pesticidal efficacy against brown planthopper (Nilaparvata lugens) [4, 12] | pesticidal efficacy against brown planthopper (Nilaparvata lugens) [4, 13] | pesticidal efficacy against brown planthopper (Nilaparvata lugens) [4, 14]

FC(F)(F)COc1cnccc1-c1nc2cc(C(F)(F)F)cnc2o1 [Compound 163]
high pesticidal efficacy: pesticidal efficacy against cotton aphid (Aphis gossypii) [3] | pesticidal efficacy against brown planthopper (Nilaparvata lugens) [4, 10] | pesticidal efficacy against brown planthopper (Nilaparvata lugens) [4, 11] | pesticidal efficacy against brown planthopper (Nilaparvata lugens) [4, 12] | pesticidal efficacy against brown planthopper (Nilaparvata lugens) [4, 13] | pesticidal efficacy against brown planthopper (Nilaparvata lugens) [4, 14]

FC(F)(F)c1ccc2oc(-c3ccncc3-c3cccnc3)nc2c1 [Compound 128, 4-(5-trifluoromethyl-benzoxazole-2-yl)-[3,3′]bipyridinyl]
high pesticidal efficacy: pesticidal efficacy against cotton aphid (Aphis gossypii) [1] | pesticidal efficacy against brown planthopper (Nilaparvata lugens) [2, 5] | pesticidal efficacy against brown planthopper (Nilaparvata lugens) [2, 6] | pesticidal efficacy against brown planthopper (Nilaparvata lugens) [2, 7] | pesticidal efficacy against brown planthopper (Nilaparvata lugens) [2, 8] | pesticidal efficacy against brown planthopper (Nilaparvata lugens) [2, 9]

CC(C)Oc1cnccc1-c1nc2cc(C(F)(F)F)ccc2o1 [Compound 70, 2-(3-isopropoxypyridin-4-yl)-5-(trifluoromethyl)benzoxazole]
high pesticidal efficacy: pesticidal efficacy against cotton aphid (Aphis gossypii) [1] | pesticidal efficacy against brown planthopper (Nilaparvata lugens) [2, 5] | pesticidal efficacy against brown planthopper (Nilaparvata lugens) [2, 6] | pesticidal efficacy against brown planthopper (Nilaparvata lugens) [2, 7] | pesticidal efficacy against brown planthopper (Nilaparvata lugens) [2, 8] | pesticidal efficacy against brown planthopper (Nilaparvata lugens) [2, 9]

FC(F)(F)COc1cnccc1-c1nc2cc(C(F)(F)F)ccc2o1 [Compound 39, 2-[3-(2,2,2-trifluoroethyl)oxypyridin-4-yl]-5-(trifluoromethyl)benzoxazole]
high pesticidal efficacy: pesticidal efficacy against cotton aphid (Aphis gossypii) [3] | pesticidal efficacy against brown planthopper (Nilaparvata lugens) [4, 10] | pesticidal efficacy against brown planthopper (Nilaparvata lugens) [4, 11] | pesticidal efficacy against brown planthopper (Nilaparvata lugens) [4, 12] | pesticidal efficacy against brown planthopper (Nilaparvata lugens) [4, 13] | pesticidal efficacy against brown planthopper (Nilaparvata lugens) [4, 14]

FC(F)(F)c1ccc2oc(-c3ccncc3Cl)nc2c1 [Compound 18, 2-(3-chloropyridin-4-yl)-5-(trifluoromethyl)benzoxazole]
high pesticidal efficacy: pesticidal efficacy against cotton aphid (Aphis gossypii) [1] | pesticidal efficacy against brown planthopper (Nilaparvata lugens) [2, 5] | pesticidal efficacy against brown planthopper (Nilaparvata lugens) [2, 6] | pesticidal efficacy against brown planthopper (Nilaparvata lugens) [2, 7] | pesticidal efficacy against brown planthopper (Nilaparvata lugens) [2, 8] | pesticidal efficacy against brown planthopper (Nilaparvata lugens) [2, 9]

CC(C)(C)COc1cnccc1-c1nc2cc(C(F)(F)F)ccc2o1 [Compound 117, 2-[3-(2,2-dimethylpropoxy)pyridin-4-yl]-5-(trifluoromethyl)benzoxazole]
high pesticidal efficacy: pesticidal efficacy against cotton aphid (Aphis gossypii) [3] | pesticidal efficacy against brown planthopper (Nilaparvata lugens) [4, 10] | pesticidal efficacy against brown planthopper (Nilaparvata lugens) [4, 11] | pesticidal efficacy against brown planthopper (Nilaparvata lugens) [4, 12] | pesticidal efficacy against brown planthopper (Nilaparvata lugens) [4, 13] | pesticidal efficacy against brown planthopper (Nilaparvata lugens) [4, 14]

FC(F)(F)c1ccc2oc(-c3ccncc3)nc2c1 [Compound 13, 2-(pyridin-4-yl)-5-(trifluoromethyl)benzoxazole]
high pesticidal efficacy: pesticidal efficacy against cotton aphid (Aphis gossypii) [1]

FC(F)(F)Sc1ccc2oc(-c3ccncc3Cl)nc2c1 [Compound 77, 2-(3-chloropyridin-4-yl)-5-(trifluoromethylthio)benzoxazole]
high pesticidal efficacy: pesticidal efficacy against cotton aphid (Aphis gossypii) [1] | pesticidal efficacy against brown planthopper (Nilaparvata lugens) [2, 5] | pesticidal efficacy against brown planthopper (Nilaparvata lugens) [2, 6] | pesticidal efficacy against brown planthopper (Nilaparvata lugens) [2, 7] | pesticidal efficacy against brown planthopper (Nilaparvata lugens) [2, 8] | pesticidal efficacy against brown planthopper (Nilaparvata lugens) [2, 9]
